From US20200222474A1, “COMPOSITIONS AND METHODS FOR INCREASING PHYTOCHEMICAL BIOAVAILABLITY AND BIOACTIVITY” (North Carolina State University, priority 2017, published 2020)

System: L. acidophilus NCFM
Test: RNA-seq transcriptional analysis of L. acidophilus NCFM growing on plant glycosides
Assay type: cell-based, Lactobacillus acidophilus
[1] = gene LBA0282 (Hypothetical protein)
[2] = gene LBA0327 (Replication protein)
[3] = gene LBA0328 (Hypothetical protein)
[4] = gene LBA0330 (Hypothetical protein)
[5] = gene LBA0457 (Hypothetical protein)
[6] = gene LBA0485 (Hypothetical protein)
[7] = gene LBA0486 (Hypothetical protein)
[8] = gene LBA0487 (Hypothetical protein.)
[9] = gene LBA0492 (Hypothetical protein)
[10] = gene LBA0541 (Cadmium-transporting ATPase)
[11] = gene LBA0542 (Putative heavy-metal-transporting alpase)
[12] = gene LBA0543 (Hypothetical protein)
[13] = gene LBA0544 (Transcriptional regulator)
[14] = gene LBA0555 (Myosin-crossreactive antigen)
[15] = gene LBA0564 (HAD family hydrolase)
[16] = gene LBA0574 (ABC multi drug exporter)
[17] = gene LBA0575 (ABC multi drug exporter)
[18] = gene LBA0604 (Immunity protein)
[19] = gene LBA0605 (Putative hydrolase)
[20] = gene LBA0608 (Hypothetical protein)
[21] = gene LBA0631 (Hypothetical protein)
[22] = gene LBA0649 (Myosin-crossreactive antigen)
[23] = gene LBA0728 (Hypothetical protein LBA0728)
[24] = gene LBA1025 (Aldo/keto reductase family oxidoreductase)
[25] = gene LBA1026 (Aldo/keto reduetase family oxidoreductase)
[26] = gene LBA1206 (Hypothetical protein)
[27] = gene LBA1401 (Peroxidase (Npx))
[28] = gene LBA1435 (Hypothetical protein)
[29] = gene LBA1455 (Putative surface layer protein)
[30] = gene LBA1469 (UDP-glucose 4-epimerase)
[31] = gene LBA1656 (Hypothetical protein)
[32] = gene LBA1675 (Hypothetical protein)
[33] = gene LBA1676 (ATP-dependent helicase)
[34] = gene LBA1683 (Putative magnesium-transporting atpase)
[35] = gene LBA1704 (N-Acetylmuramic acid-6-phosphate etherase)
[36] = gene LBA1740 (Hypothetical protein)
[37] = gene LBA1752 (Hypothetical protein)
[38] = gene LBA1769 (Hypothetical protein)
[39] = gene LBA1793 (Hypothetical protein)
[40] = gene LBA1869 (Beta-phosphoglueomutase)
[41] = gene LBA1895 (Hypothetical protein)
[42] = nTPM on plant glycoside relative to glucose, mid-exponential phase

OCc1ccccc1O[C@@H]1O[C@H](CO)[C@@H](O)[C@H](O)[C@H]1O [Salicin]
Log2 differential normalized TPM ratio compared to lactose [1]: 0
Transcripts per million (rpm) [1]: 34.3 rpm
Log2 differential normalized TPM ratio compared to glucose [2]: 0
Log2 differential normalized TPM ratio compared to lactose [2]: −0.3
Transcripts per million (rpm) [2]: 8.1 rpm
Log2 differential normalized TPM ratio compared to glucose [3]: −0.1
Log2 differential normalized TPM ratio compared to lactose [3]: 0
Transcripts per million (rpm) [3]: 13.3 rpm
Log2 differential normalized TPM ratio compared to glucose [4]: 0.4
Log2 differential normalized TPM ratio compared to lactose [4]: 0
Transcripts per million (rpm) [4]: 27.3 rpm
Log2 differential normalized TPM ratio compared to glucose [5]: 1.8
Log2 differential normalized TPM ratio compared to lactose [5]: 0.8
Transcripts per million (rpm) [5]: 1746 rpm
Log2 differential normalized TPM ratio compared to glucose [6]: 1.9
Log2 differential normalized TPM ratio compared to lactose [6]: −0.5
Transcripts per million (rpm) [6]: 770.3 rpm
Log2 differential normalized TPM ratio compared to glucose [7]: 2.4
Log2 differential normalized TPM ratio compared to lactose [7]: −0.4
Transcripts per million (rpm) [7]: 1205 rpm
Log2 differential normalized TPM ratio compared to glucose [8]: 1.5
Log2 differential normalized TPM ratio compared to lactose [8]: 0.2
Transcripts per million (rpm) [8]: 96.1 rpm
Log2 differential normalized TPM ratio compared to glucose [9]: 2
Log2 differential normalized TPM ratio compared to lactose [9]: −0.5
Transcripts per million (rpm) [9]: 32.8 rpm
Log2 differential normalized TPM ratio compared to glucose [10]: 2
Log2 differential normalized TPM ratio compared to lactose [10]: −0.3
Transcripts per million (rpm) [10]: 143.6 rpm
Log2 differential normalized TPM ratio compared to glucose [11]: 1.8
Log2 differential normalized TPM ratio compared to lactose [11]: −0.4
Transcripts per million (rpm) [11]: 311.6 rpm
Log2 differential normalized TPM ratio compared to glucose [12]: 2
Log2 differential normalized TPM ratio compared to lactose [12]: −0.4
Transcripts per million (rpm) [12]: 266.3 rpm
Log2 differential normalized TPM ratio compared to glucose [13]: 1.7
Log2 differential normalized TPM ratio compared to lactose [13]: −0.3
Transcripts per million (rpm) [13]: 342.8 rpm
Log2 differential normalized TPM ratio compared to glucose [14]: 1.4
Log2 differential normalized TPM ratio compared to lactose [14]: −0.5
Transcripts per million (rpm) [14]: 118.8 rpm
Log2 differential normalized TPM ratio compared to glucose [15]: 0.4
Log2 differential normalized TPM ratio compared to lactose [15]: −0.2
Transcripts per million (rpm) [15]: 1.4 rpm
Log2 differential normalized TPM ratio compared to glucose [16]: −0.7
Log2 differential normalized TPM ratio compared to lactose [16]: −1
Transcripts per million (rpm) [16]: 54.6 rpm
Log2 differential normalized TPM ratio compared to glucose [17]: −0.5
Log2 differential normalized TPM ratio compared to lactose [17]: −0.8
Transcripts per million (rpm) [17]: 55.6 rpm
Log2 differential normalized TPM ratio compared to glucose [18]: −0.1
Log2 differential normalized TPM ratio compared to lactose [18]: −0.6
Transcripts per million (rpm) [18]: 14.3 rpm
Log2 differential normalized TPM ratio compared to glucose [19]: 1.2
Log2 differential normalized TPM ratio compared to lactose [19]: 0.2
Transcripts per million (rpm) [19]: 6.3 rpm
Log2 differential normalized TPM ratio compared to glucose [20]: 1.4
Log2 differential normalized TPM ratio compared to lactose [20]: 0.3
Transcripts per million (rpm) [20]: 95.4 rpm
Log2 differential normalized TPM ratio compared to glucose [21]: 2.9
Log2 differential normalized TPM ratio compared to lactose [21]: −0.2
Transcripts per million (rpm) [21]: 9342.6 rpm
Log2 differential normalized TPM ratio compared to glucose [22]: 1.6
Log2 differential normalized TPM ratio compared to lactose [22]: 0.8
Transcripts per million (rpm) [22]: 116.3 rpm
Log2 differential normalized TPM ratio compared to glucose [23]: 4.1
Log2 differential normalized TPM ratio compared to lactose [23]: 2.3
Transcripts per million (rpm) [23]: 43.8 rpm
Log2 differential normalized TPM ratio compared to lactose (gene LBA0802 (Hypothetical protein)): −0.2
Log2 differential normalized TPM ratio compared to glucose (gene LBA0861 (Polyferredoxin)): 0.1
Log2 differential normalized TPM ratio compared to lactose (gene LBA0861 (Polyferredoxin)): −0.5
Transcripts per million (rpm) (gene LBA0861 (Polyferredoxin)): 196.3 rpm
Log2 differential normalized TPM ratio compared to glucose (gene LBA1023 (Oxidoreductase)): −0.4
Log2 differential normalized TPM ratio compared to lactose (gene LBA1023 (Oxidoreductase)): −0.7
Transcripts per million (rpm) (gene LBA1023 (Oxidoreductase)): 132.8 rpm
Log2 differential normalized TPM ratio compared to glucose [24]: −0.4
Log2 differential normalized TPM ratio compared to lactose [24]: −0.5
Transcripts per million (rpm) [24]: 23.7 rpm
Log2 differential normalized TPM ratio compared to glucose [25]: −0.3
Log2 differential normalized TPM ratio compared to lactose [25]: −0.8
Transcripts per million (rpm) [25]: 26.1 rpm
Log2 differential normalized TPM ratio compared to glucose (gene LBA1027 (Oxidoreductase)): 2.2
Log2 differential normalized TPM ratio compared to lactose (gene LBA1027 (Oxidoreductase)): 0.6
Transcripts per million (rpm) (gene LBA1027 (Oxidoreductase)): 2726.8 rpm
Log2 differential normalized TPM ratio compared to glucose [26]: 1.5
Log2 differential normalized TPM ratio compared to lactose [26]: 0.3
Transcripts per million (rpm) [26]: 391.2 rpm
Log2 differential normalized TPM ratio compared to glucose [27]: 2.7
Log2 differential normalized TPM ratio compared to lactose [27]: 0.6
Transcripts per million (rpm) [27]: 466.6 rpm
Log2 differential normalized TPM ratio compared to glucose [28]: 3.6
Log2 differential normalized TPM ratio compared to lactose [28]: −0.2
Transcripts per million (rpm) [28]: 52.5 rpm
Log2 differential normalized TPM ratio compared to glucose [29]: 0.1
Log2 differential normalized TPM ratio compared to lactose [29]: −1.6
Transcripts per million (rpm) [29]: 18.3 rpm
Log2 differential normalized TPM ratio compared to glucose [30]: 1.4
Log2 differential normalized TPM ratio compared to lactose [30]: −3.6
Transcripts per million (rpm) [30]: 235.5 rpm
Log2 differential normalized TPM ratio compared to glucose [31]: 0.9
Log2 differential normalized TPM ratio compared to lactose [31]: 0.3
Transcripts per million (rpm) [31]: 38.2 rpm
Log2 differential normalized TPM ratio compared to glucose [32]: 2
Log2 differential normalized TPM ratio compared to lactose [32]: 0.5
Transcripts per million (rpm) [32]: 1669.1 rpm
Log2 differential normalized TPM ratio compared to glucose [33]: 1.7
Log2 differential normalized TPM ratio compared to lactose [33]: 0.5
Transcripts per million (rpm) [33]: 1070.6 rpm
Log2 differential normalized TPM ratio compared to glucose [34]: 0.3
Log2 differential normalized TPM ratio compared to lactose [34]: 0.5
Transcripts per million (rpm) [34]: 20.2 rpm
Log2 differential normalized TPM ratio compared to glucose [35]: 0.7
Log2 differential normalized TPM ratio compared to lactose [35]: 0.1
Transcripts per million (rpm) [35]: 11.6 rpm
Log2 differential normalized TPM ratio compared to glucose [36]: 0.3
Log2 differential normalized TPM ratio compared to lactose [36]: −0.5
Transcripts per million (rpm) [36]: 23.1 rpm
Log2 differential normalized TPM ratio compared to glucose [37]: 0.6
Log2 differential normalized TPM ratio compared to lactose [37]: −0.3
Transcripts per million (rpm) [37]: 13 rpm
Log2 differential normalized TPM ratio compared to glucose [38]: 1.8
Log2 differential normalized TPM ratio compared to lactose [38]: −0.1
Transcripts per million (rpm) [38]: 5527.5 rpm
Log2 differential normalized TPM ratio compared to glucose [39]: 1.2
Log2 differential normalized TPM ratio compared to lactose [39]: −1.7
Transcripts per million (rpm) [39]: 37.8 rpm
Log2 differential normalized TPM ratio compared to glucose (gene LBA1796 (ABC exporter)): 1
Log2 differential normalized TPM ratio compared to lactose (gene LBA1796 (ABC exporter)): −1.6
Transcripts per million (rpm) (gene LBA1796 (ABC exporter)): 18.3 rpm
Log2 differential normalized TPM ratio compared to glucose [40]: 2.4
Log2 differential normalized TPM ratio compared to lactose [40]: −0.1
Transcripts per million (rpm) [40]: 43.1 rpm
Log2 differential normalized TPM ratio compared to glucose [41]: 0.7
Log2 differential normalized TPM ratio compared to lactose [41]: 0.5
Transcripts per million (rpm) [41]: 46.2 rpm
Log2 Ratio vs Glc, LBA0225 Phospho-β-glucosidase (GH1) [42]: −0.1
Log2 Ratio vs Glc, LBA0227 PTS EIIC [42]: 0.9
Log2 Ratio vs Glc, LBA0228 Transcriptional regulator [42]: 0.1
Log2 Ratio vs Glc, LBA0466 Phosphoenolpyruvate carboxykinase (ATP) [42]: 1.3
Log2 Ratio vs Glc, LBA0491 PTS EIIC [42]: 1.5
Log2 Ratio vs Glc, LBA0492 Hypothetical protein [42]: 2
Log2 Ratio vs Glc, LBA0555 Myosin-cross-reactive antigen/Fatty acid hydratase [42]: 1.4
Log2 Ratio vs Glc, LBA0606 PTS EIIBC [42]: 2.5
Log2 Ratio vs Glc, LBA0631 Hypothetical protein [42]: 2.9
Log2 Ratio vs Glc, LBA0724 Transcriptional regulator (antiterminator) [42]: 5.3
Log2 Ratio vs Glc, LBA0725 PTS EIICBA [42]: 8.9
Log2 Ratio vs Glc, LBA0726 Phospho-β-glucosidase (GH1) [42]: 6.2
Log2 Ratio vs Glc, LBA0728 Hypothetical protein [42]: 4.1
Log2 Ratio vs Glc, LBA0876 PTS EIIC [42]: 2.4
Log2 Ratio vs Glc, LBA0877 PTS EIIA [42]: 1.3
Log2 Ratio vs Glc, LBA1401 Peroxidase (Npx) [42]: 2.7
Log2 Ratio vs Glc, LBA1411 Fumarate reductase flavoprotein subunit [42]: 1.4
Log2 Ratio vs Glc, LBA1433 Dihydroxyacetone kinase [42]: 2.7
Log2 Ratio vs Glc, LBA1434 Dihydroxyacetone kinase [42]: 3.3
Log2 Ratio vs Glc, LBA1435 Hypothetical protein [42]: 3.6
Log2 Ratio vs Glc, LBA1436 Glycerol uptake facilitator protein [42]: 3.8
Log2 Ratio vs Glc, LBA1632 NAD-dependent aldehyde dehydrogenase [42]: 2
Log2 Ratio vs Glc, LBA1684 PTS EIIA [42]: 2.6
Log2 Ratio vs Glc, LBA1689 Maltose-6′-phosphate glucosidase (GH4) [42]: 3.7
Log2 Ratio vs Glc, LBA1701 Melibiose operon regulatory protein [42]: 1
Log2 Ratio vs Glc, LBA1709 Mucus binding protein precursor [42]: 0.5
Log2 Ratio vs Glc, LBA1797 Hypothetical protein [42]: 1.3
Log2 Ratio vs Glc, LBA1812 α-Glucosidase II (GH31) [42]: 2.2
Log2 Ratio vs Glc, LBA1869 β-Phosphoglucomutase [42]: 2.4
Log2 Ratio vs Glc, LBA1871 Neopullulanase (GH13) [42]: 0.9
Log2 Ratio vs Glc, LBA1873 Acetate kinase [42]: 1.2
Log2 Ratio vs Glc, LBA1974 Pyruvate oxidase [42]: 1.8
